Test results taken from ChEMBL document CHEMBL3885881, “DrugMatrix”.

Species on record: Rattus norvegicus
Experiment: DrugMatrix - Regimen: Daily Repeat
Format: toxicity, organism-based, Sprague-Dawley
Design: regimen Daily Repeat, gender Male, age 6-8 weeks
Conditions: in vivo, sc, route subcutaneous, […]; for ABSOLUTE BASOPHIL / ABSOLUTE EOSINOPHIL / ABSOLUTE LYMPHOCYTE / ABSOLUTE MONOCYTE / ABSOLUTE SEGMENTED NEUTROPHIL / BASOPHIL / EOSINOPHIL / ERYTHROCYTE COUNT / HEMATOCRIT / HEMOGLOBIN / LEUKOCYTE COUNT / LYMPHOCYTE / MEAN CORPUSCULAR HEMOGLOBIN / MEAN CORPUSCULAR HEMOGLOBIN CONCENTRATION / MEAN CORPUSCULAR VOLUME / MONOCYTE / NEUTROPHIL / NUCLEATED RED BLOOD CELLS / PLATELET COUNT: tissue Blood; for ALANINE AMINOTRANSFERASE / ALBUMIN / ALKALINE PHOSPHATASE / ASPARTATE AMINOTRANSFERASE / BLOOD UREA NITROGEN / CARBON DIOXIDE / CHLORIDE / CHOLESTEROL / CREATINE PHOSPHOKINASE / CREATININE / GLUCOSE / LACTATE DEHYDROGENASE / LIPASE / PHOSPHORUS / POTASSIUM / SODIUM / TOTAL BILIRUBIN / TOTAL PROTEIN / URIC ACID: tissue Plasma
[1] = 0 mg/kg, 72 h, dose level Control, time 3 day
[2] = 0 mg/kg, 120 h, dose level Control, time 5 day
[3] = 56 mg/kg, 72 h, dose level M1, time 3 day

Q: O=C(Nc1ccc(Br)cc1)c1cc(Br)cc(Br)c1O [TRIBROMSALAN] was tested. Which “ABSOLUTE BASOPHIL” value [1] did it give?
A: 0 CELLS/uL

Q: What about the “ABSOLUTE EOSINOPHIL” value [1] of the same molecule?
A: 42.67 CELLS/uL

Q: What about the “ABSOLUTE LYMPHOCYTE” value [1] of the same molecule?
A: 10202 CELLS/uL

Q: What about the “ABSOLUTE MONOCYTE” value [1] of the same molecule?
A: 261.5 CELLS/uL

Q: And the “ABSOLUTE SEGMENTED NEUTROPHIL” value [1]?
A: 2193.83 CELLS/uL

Q: And the BASOPHIL [1]?
A: 0%

Q: What about the EOSINOPHIL [1] of the same molecule?
A: 0.33%

Q: And the “ERYTHROCYTE COUNT” value [1]?
A: 5.63 x10E6/uL

Q: And the HEMATOCRIT [1]?
A: 35.35%

Q: What about the HEMOGLOBIN [1] of the same molecule?
A: 13.07 G/DL

Q: What about the “LEUKOCYTE COUNT” value [1] of the same molecule?
A: 12.7 x10E3/uL

Q: What about the LYMPHOCYTE [1] of the same molecule?
A: 81.17%

Q: And the “MEAN CORPUSCULAR HEMOGLOBIN” value [1]?
A: 23.23 pg

Q: What about the “MEAN CORPUSCULAR HEMOGLOBIN CONCENTRATION” value [1] of the same molecule?
A: 36.97 G/DL

Q: And the “MEAN CORPUSCULAR VOLUME” value [1]?
A: 62.82 fL

Q: What about the MONOCYTE [1] of the same molecule?
A: 2%

Q: And the NEUTROPHIL [1]?
A: 16.5%

Q: What about the “NUCLEATED RED BLOOD CELLS” value [1] of the same molecule?
A: 0 /100WBC

Q: And the “PLATELET COUNT” value [1]?
A: 1180.33 x10E3/uL

Q: And the “ALANINE AMINOTRANSFERASE” value [1]?
A: 48.67 u/L

Q: And the ALBUMIN [1]?
A: 4.08 G/DL

Q: And the “ALKALINE PHOSPHATASE” value [1]?
A: 360.67 u/L

Q: What about the “ASPARTATE AMINOTRANSFERASE” value [1] of the same molecule?
A: 85.5 u/L

Q: And the “BLOOD UREA NITROGEN” value [1]?
A: 17.83 mg/dL

Q: And the “CARBON DIOXIDE” value [1]?
A: 26.17 mmol/L

Q: What about the CHLORIDE [1] of the same molecule?
A: 101.83 MEQ/L

Q: And the CHOLESTEROL [1]?
A: 71 mg/dL

Q: And the “CREATINE PHOSPHOKINASE” value [1]?
A: 515.17 u/L

Q: What about the CREATININE [1] of the same molecule?
A: 0.22 mg/dL

Q: What about the GLUCOSE [1] of the same molecule?
A: 192.5 mg/dL

Q: What about the “LACTATE DEHYDROGENASE” value [1] of the same molecule?
A: 214.67 u/L

Q: And the LIPASE [1]?
A: 8.5 u/L

Q: And the PHOSPHORUS [1]?
A: 12.95 mg/dL

Q: What about the POTASSIUM [1] of the same molecule?
A: 6.39 MEQ/L

Q: And the SODIUM [1]?
A: 142.38 MEQ/L

Q: What about the “TOTAL BILIRUBIN” value [1] of the same molecule?
A: 0.18 mg/dL

Q: And the “TOTAL PROTEIN” value [1]?
A: 5.95 G/DL

Q: And the “URIC ACID” value [1]?
A: 1.83 mg/dL

Q: What about the “ABSOLUTE BASOPHIL” value [2] of the same molecule?
A: 0 CELLS/uL

Q: And the “ABSOLUTE EOSINOPHIL” value [2]?
A: 188.5 CELLS/uL

Q: What about the “ABSOLUTE LYMPHOCYTE” value [2] of the same molecule?
A: 12360.83 CELLS/uL

Q: And the “ABSOLUTE MONOCYTE” value [2]?
A: 64.33 CELLS/uL

Q: And the “ABSOLUTE SEGMENTED NEUTROPHIL” value [2]?
A: 1986.33 CELLS/uL

Q: What about the BASOPHIL [2] of the same molecule?
A: 0%

Q: What about the EOSINOPHIL [2] of the same molecule?
A: 1.33%

Q: What about the “ERYTHROCYTE COUNT” value [2] of the same molecule?
A: 5.52 x10E6/uL

Q: What about the HEMATOCRIT [2] of the same molecule?
A: 35.82%

Q: What about the HEMOGLOBIN [2] of the same molecule?
A: 13.25 G/DL

Q: And the “LEUKOCYTE COUNT” value [2]?
A: 14.6 x10E3/uL

Q: What about the LYMPHOCYTE [2] of the same molecule?
A: 84.5%

Q: What about the “MEAN CORPUSCULAR HEMOGLOBIN” value [2] of the same molecule?
A: 24.05 pg

Q: What about the “MEAN CORPUSCULAR HEMOGLOBIN CONCENTRATION” value [2] of the same molecule?
A: 36.98 G/DL

Q: What about the “MEAN CORPUSCULAR VOLUME” value [2] of the same molecule?
A: 64.97 fL

Q: And the MONOCYTE [2]?
A: 0.5%

Q: And the NEUTROPHIL [2]?
A: 13.67%

Q: And the “NUCLEATED RED BLOOD CELLS” value [2]?
A: 0 /100WBC

Q: And the “PLATELET COUNT” value [2]?
A: 1297.83 x10E3/uL

Q: And the “ALANINE AMINOTRANSFERASE” value [2]?
A: 51.17 u/L

Q: And the ALBUMIN [2]?
A: 4.08 G/DL

Q: And the “ALKALINE PHOSPHATASE” value [2]?
A: 393.17 u/L

Q: What about the “ASPARTATE AMINOTRANSFERASE” value [2] of the same molecule?
A: 111 u/L

Q: What about the “BLOOD UREA NITROGEN” value [2] of the same molecule?
A: 18.17 mg/dL

Q: What about the “CARBON DIOXIDE” value [2] of the same molecule?
A: 25 mmol/L

Q: And the CHLORIDE [2]?
A: 105.17 MEQ/L

Q: And the CHOLESTEROL [2]?
A: 65.5 mg/dL

Q: What about the “CREATINE PHOSPHOKINASE” value [2] of the same molecule?
A: 911.5 u/L

Q: And the CREATININE [2]?
A: 0.21 mg/dL

Q: And the GLUCOSE [2]?
A: 183 mg/dL

Q: And the “LACTATE DEHYDROGENASE” value [2]?
A: 189 u/L

Q: And the LIPASE [2]?
A: 8.33 u/L

Q: What about the PHOSPHORUS [2] of the same molecule?
A: 12.78 mg/dL

Q: What about the POTASSIUM [2] of the same molecule?
A: 6.05 MEQ/L

Q: What about the SODIUM [2] of the same molecule?
A: 144.57 MEQ/L

Q: And the “TOTAL BILIRUBIN” value [2]?
A: 0.25 mg/dL

Q: What about the “TOTAL PROTEIN” value [2] of the same molecule?
A: 5.83 G/DL

Q: What about the “URIC ACID” value [2] of the same molecule?
A: 1.58 mg/dL

Q: What about the “ABSOLUTE BASOPHIL” value [3] of the same molecule?
A: 0 CELLS/uL

Q: And the “ABSOLUTE EOSINOPHIL” value [3]?
A: 245 CELLS/uL

Q: And the “ABSOLUTE LYMPHOCYTE” value [3]?
A: 12670.67 CELLS/uL

Q: What about the “ABSOLUTE MONOCYTE” value [3] of the same molecule?
A: 0 CELLS/uL

Q: And the “ABSOLUTE SEGMENTED NEUTROPHIL” value [3]?
A: 1651 CELLS/uL

Q: And the BASOPHIL [3]?
A: 0%

Q: And the EOSINOPHIL [3]?
A: 1.67%

Q: What about the “ERYTHROCYTE COUNT” value [3] of the same molecule?
A: 5.81 x10E6/uL

Q: And the HEMATOCRIT [3]?
A: 35.97%

Q: What about the HEMOGLOBIN [3] of the same molecule?
A: 13.47 G/DL

Q: And the “LEUKOCYTE COUNT” value [3]?
A: 14.57 x10E3/uL

Q: And the LYMPHOCYTE [3]?
A: 87.33%

Q: What about the “MEAN CORPUSCULAR HEMOGLOBIN” value [3] of the same molecule?
A: 23.27 pg

Q: What about the “MEAN CORPUSCULAR HEMOGLOBIN CONCENTRATION” value [3] of the same molecule?
A: 37.43 G/DL

Q: And the “MEAN CORPUSCULAR VOLUME” value [3]?
A: 62.03 fL

Q: And the MONOCYTE [3]?
A: 0%

Q: And the NEUTROPHIL [3]?
A: 11%

Q: What about the “NUCLEATED RED BLOOD CELLS” value [3] of the same molecule?
A: 0 /100WBC

Q: And the “PLATELET COUNT” value [3]?
A: 1364.67 x10E3/uL

Q: What about the “ALANINE AMINOTRANSFERASE” value [3] of the same molecule?
A: 47.67 u/L

Q: And the ALBUMIN [3]?
A: 4.2 G/DL

Q: What about the “ALKALINE PHOSPHATASE” value [3] of the same molecule?
A: 292.33 u/L

Q: And the “ASPARTATE AMINOTRANSFERASE” value [3]?
A: 78.67 u/L

Q: And the “BLOOD UREA NITROGEN” value [3]?
A: 14.67 mg/dL

Q: And the “CARBON DIOXIDE” value [3]?
A: 25 mmol/L

Q: And the CHLORIDE [3]?
A: 102.33 MEQ/L

Q: And the CHOLESTEROL [3]?
A: 80.67 mg/dL

Q: What about the “CREATINE PHOSPHOKINASE” value [3] of the same molecule?
A: 290.33 u/L

Q: What about the CREATININE [3] of the same molecule?
A: 0.19 mg/dL

Q: What about the GLUCOSE [3] of the same molecule?
A: 173.67 mg/dL

Q: What about the “LACTATE DEHYDROGENASE” value [3] of the same molecule?
A: 127.33 u/L

Q: And the LIPASE [3]?
A: 8.33 u/L

Q: What about the PHOSPHORUS [3] of the same molecule?
A: 12.7 mg/dL

Q: And the POTASSIUM [3]?
A: 5.88 MEQ/L

Q: And the SODIUM [3]?
A: 145.47 MEQ/L

Q: What about the “TOTAL BILIRUBIN” value [3] of the same molecule?
A: 0.2 mg/dL

Q: What about the “TOTAL PROTEIN” value [3] of the same molecule?
A: 6.23 G/DL

Q: And the “URIC ACID” value [3]?
A: 1.67 mg/dL
